Source: patent US20230049952A1, “METHODS AND COMPOUNDS FOR RESTORING MUTANT P53 FUNCTION” (PMV Pharmaceuticals, Inc., priority 2020, published 2023)

Tested on: p53 signaling pathway in MT373 tumors
Test: MT373 syngeneic sarcoma model: mouse p53 signaling pathway profiling panel
Assay type: in vivo

With `CCn1c(C#CCNc2ccccc2)cc2cc(CNC3CCN(C)CC3)ccc21` [Compound 1, 1-Anilino-3-{1-ethyl-5-[(1-methyl-4-piperidylamino)methyl]-1H-indol-2-yl}-2-propyne] the “Sirt1 fold increase or percent reduction vs vehicle control” value (150 mg/kg BIDx1, 48 h) was 13.36 fold or %, the “Stat1 fold increase or percent reduction vs vehicle control” value (150 mg/kg BIDx1, 48 h) was 1.72 fold or % and the “Tnf fold increase or percent reduction vs vehicle control” value (150 mg/kg BIDx1, 48 h) was 27.80 fold or %. The “Traf1 fold increase or percent reduction vs vehicle control” value (150 mg/kg BIDx1, 48 h) was 1.04 fold or %, the “Trp53bp2 fold increase or percent reduction vs vehicle control” value (150 mg/kg BIDx1, 48 h) was 8.14 fold or % and the “Trp53 fold increase or percent reduction vs vehicle control” value (150 mg/kg BIDx1, 48 h) was 22.40 fold or %. For the same molecule, the “Apex1 fold increase or percent reduction vs vehicle control” value (150 mg/kg BIDx1, 72 h) was 15.68 fold or %, the “Atm fold increase or percent reduction vs vehicle control” value (150 mg/kg BIDx1, 72 h) was 18.10 fold or % and the “Atr fold increase or percent reduction vs vehicle control” value (150 mg/kg BIDx1, 72 h) was 1.15 fold or %. The “Bag1 fold increase or percent reduction vs vehicle control” value (150 mg/kg BIDx1, 72 h) was 21.87 fold or %, the “Bax fold increase or percent reduction vs vehicle control” value (150 mg/kg BIDx1, 72 h) was 21.38 fold or % and the “Bbc3 fold increase or percent reduction vs vehicle control” value (150 mg/kg BIDx1, 72 h) was 1.10 fold or %. For the same molecule, the “Bcl2 fold increase or percent reduction vs vehicle control” value (150 mg/kg BIDx1, 72 h) was 6.74 fold or %, the “Bid fold increase or percent reduction vs vehicle control” value (150 mg/kg BIDx1, 72 h) was 2.75 fold or % and the “Birc5 fold increase or percent reduction vs vehicle control” value (150 mg/kg BIDx1, 72 h) was 24.85 fold or %. The “Brca1 fold increase or percent reduction vs vehicle control” value (150 mg/kg BIDx1, 72 h) was 17.44 fold or %, the “Brca2 fold increase or percent reduction vs vehicle control” value (150 mg/kg BIDx1, 72 h) was 19.53 fold or % and the “Btg2 fold increase or percent reduction vs vehicle control” value (150 mg/kg BIDx1, 72 h) was 23.10 fold or %. The “Casp2 fold increase or percent reduction vs vehicle control” value (150 mg/kg BIDx1, 72 h) was 8.98 fold or %, the “Ccnb1 fold increase or percent reduction vs vehicle control” value (150 mg/kg BIDx1, 72 h) was 18.77 fold or % and the “Ccne1 fold increase or percent reduction vs vehicle control” value (150 mg/kg BIDx1, 72 h) was 1.04 fold or %. For the same molecule, the “Ccng1 fold increase or percent reduction vs vehicle control” value (150 mg/kg BIDx1, 72 h) was 11.26 fold or %, the “Ccnh fold increase or percent reduction vs vehicle control” value (150 mg/kg BIDx1, 72 h) was 5.78 fold or % and the “Cdc25a fold increase or percent reduction vs vehicle control” value (150 mg/kg BIDx1, 72 h) was 1.65 fold or %. For the same molecule, the “Cdk1 fold increase or percent reduction vs vehicle control” value (150 mg/kg BIDx1, 72 h) was 22.76 fold or %, the “Cdk4 fold increase or percent reduction vs vehicle control” value (150 mg/kg BIDx1, 72 h) was 19.73 fold or % and the “Cdkn1a fold increase or percent reduction vs vehicle control” value (150 mg/kg BIDx1, 72 h) was 13.49 fold or %. For the same molecule, the “Cdkn2a fold increase or percent reduction vs vehicle control” value (150 mg/kg BIDx1, 72 h) was 20.75 fold or %, the “Chek1 fold increase or percent reduction vs vehicle control” value (150 mg/kg BIDx1, 72 h) was 17.70 fold or % and the “Cradd fold increase or percent reduction vs vehicle control” value (150 mg/kg BIDx1, 72 h) was 16.72 fold or %. For the same molecule, the “Cul9 fold increase or percent reduction vs vehicle control” value (150 mg/kg BIDx1, 72 h) was 1.54 fold or %, the “Dapk1 fold increase or percent reduction vs vehicle control” value (150 mg/kg BIDx1, 72 h) was 1.39 fold or % and the “Dnmt1 fold increase or percent reduction vs vehicle control” value (150 mg/kg BIDx1, 72 h) was 1.03 fold or %. The “E2f1 fold increase or percent reduction vs vehicle control” value (150 mg/kg BIDx1, 72 h) was 1.10 fold or %, the “E2f3 fold increase or percent reduction vs vehicle control” value (150 mg/kg BIDx1, 72 h) was 17.09 fold or % and the “Egfr fold increase or percent reduction vs vehicle control” value (150 mg/kg BIDx1, 72 h) was 13.15 fold or %. For the same molecule, the “Egr1 fold increase or percent reduction vs vehicle control” value (150 mg/kg BIDx1, 72 h) was 38.21 fold or %, the “Ep300 fold increase or percent reduction vs vehicle control” value (150 mg/kg BIDx1, 72 h) was 2.74 fold or % and the “Ercc1 fold increase or percent reduction vs vehicle control” value (150 mg/kg BIDx1, 72 h) was 20.27 fold or %. For the same molecule, the “Esr1 fold increase or percent reduction vs vehicle control” value (150 mg/kg BIDx1, 72 h) was 1.82 fold or %, the “Fadd fold increase or percent reduction vs vehicle control” value (150 mg/kg BIDx1, 72 h) was 1.18 fold or % and the “Fas fold increase or percent reduction vs vehicle control” value (150 mg/kg BIDx1, 72 h) was 12.10 fold or %. The “Fasl fold increase or percent reduction vs vehicle control” value (150 mg/kg BIDx1, 72 h) was 1.29 fold or %, the “Foxo3 fold increase or percent reduction vs vehicle control” value (150 mg/kg BIDx1, 72 h) was 1.08 fold or % and the “Gadd45a fold increase or percent reduction vs vehicle control” value (150 mg/kg BIDx1, 72 h) was 12.31 fold or %. For the same molecule, the “Hif1a fold increase or percent reduction vs vehicle control” value (150 mg/kg BIDx1, 72 h) was 1.18 fold or %, the “Il6 fold increase or percent reduction vs vehicle control” value (150 mg/kg BIDx1, 72 h) was 61.14 fold or % and the “Jun fold increase or percent reduction vs vehicle control” value (150 mg/kg BIDx1, 72 h) was 20.41 fold or %. The “Kras fold increase or percent reduction vs vehicle control” value (150 mg/kg BIDx1, 72 h) was 1.08 fold or %, the “Lig4 fold increase or percent reduction vs vehicle control” value (150 mg/kg BIDx1, 72 h) was 1.27 fold or % and the “Mdm2 fold increase or percent reduction vs vehicle control” value (150 mg/kg BIDx1, 72 h) was 1.10 fold or %. For the same molecule, the “Mdm4 fold increase or percent reduction vs vehicle control” value (150 mg/kg BIDx1, 72 h) was 13.89 fold or %, the “Mel1 fold increase or percent reduction vs vehicle control” value (150 mg/kg BIDx1, 72 h) was 17.68 fold or % and the “Mlh1 fold increase or percent reduction vs vehicle control” value (150 mg/kg BIDx1, 72 h) was 1.52 fold or %. The “Msh2 fold increase or percent reduction vs vehicle control” value (150 mg/kg BIDx1, 72 h) was 4.98 fold or %, the “Myod1 fold increase or percent reduction vs vehicle control” value (150 mg/kg BIDx1, 72 h) was 3.03 fold or % and the “Nf1 fold increase or percent reduction vs vehicle control” value (150 mg/kg BIDx1, 72 h) was 12.40 fold or %. For the same molecule, the “Nfkb1 fold increase or percent reduction vs vehicle control” value (150 mg/kg BIDx1, 72 h) was 1.15 fold or %, the “Pcna fold increase or percent reduction vs vehicle control” value (150 mg/kg BIDx1, 72 h) was 21.44 fold or % and the “Pmaip1 fold increase or percent reduction vs vehicle control” value (150 mg/kg BIDx1, 72 h) was 1.41 fold or %. The “Ppm1d fold increase or percent reduction vs vehicle control” value (150 mg/kg BIDx1, 72 h) was 0.20 fold or %, the “Prkca fold increase or percent reduction vs vehicle control” value (150 mg/kg BIDx1, 72 h) was 4.15 fold or % and the “Pten fold increase or percent reduction vs vehicle control” value (150 mg/kg BIDx1, 72 h) was 1.14 fold or %. For the same molecule, the “Pttg1 fold increase or percent reduction vs vehicle control” value (150 mg/kg BIDx1, 72 h) was 1.19 fold or %, the “Rb1 fold increase or percent reduction vs vehicle control” value (150 mg/kg BIDx1, 72 h) was 3.47 fold or % and the “Rela fold increase or percent reduction vs vehicle control” value (150 mg/kg BIDx1, 72 h) was 2.50 fold or %. The “Rprm fold increase or percent reduction vs vehicle control” value (150 mg/kg BIDx1, 72 h) was 1.51 fold or %, the “Serpinb5 fold increase or percent reduction vs vehicle control” value (150 mg/kg BIDx1, 72 h) was 1.00 fold or % and the “Sesn2 fold increase or percent reduction vs vehicle control” value (150 mg/kg BIDx1, 72 h) was 1.31 fold or %. For the same molecule, the “Sfn fold increase or percent reduction vs vehicle control” value (150 mg/kg BIDx1, 72 h) was 7.33 fold or %, the “Sirt1 fold increase or percent reduction vs vehicle control” value (150 mg/kg BIDx1, 72 h) was 1.08 fold or % and the “Stat1 fold increase or percent reduction vs vehicle control” value (150 mg/kg BIDx1, 72 h) was 1.78 fold or %. The “Tnf fold increase or percent reduction vs vehicle control” value (150 mg/kg BIDx1, 72 h) was 1.15 fold or %, the “Traf1 fold increase or percent reduction vs vehicle control” value (150 mg/kg BIDx1, 72 h) was 1.41 fold or % and the “Trp53bp2 fold increase or percent reduction vs vehicle control” value (150 mg/kg BIDx1, 72 h) was 1.07 fold or %. For the same molecule, the “Trp53 fold increase or percent reduction vs vehicle control” value (150 mg/kg BIDx1, 72 h) was 1.21 fold or %, the “Bbc3 mRNA increase” value (150 mg/kg BID×1, 24 h) was 2.27 fold and the “Birc5 mRNA decrease” value (150 mg/kg BID×1, 24 h) was 53.57%. The “Ccng1 mRNA increase” value (150 mg/kg BID×1, 24 h) was 6.84 fold, the “Cdc25c mRNA decrease” value (150 mg/kg BID×1, 24 h) was 41.75% and the “Cdk1 mRNA decrease” value (150 mg/kg BID×1, 24 h) was 64.58%. The “Cdkn1a mRNA increase” value (150 mg/kg BID×1, 24 h) was 10.93 fold, the “Chek1 mRNA decrease” value (150 mg/kg BID×1, 24 h) was 58.77% and the “Egfr mRNA change” value (150 mg/kg BID×1, 24 h) was 47.37%.
